Test results published in PubChem BioAssay (NCI).
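Assay format: 96-well plates, 48-hour exposure. At the GI50, growth is halved. TGI: total growth inhibition.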

How the values were obtained:
Assay in all cases: growth of human tumour cells (NCI), 48 h
786-0 renal = tested on: 786-0 renal
A498 renal = tested on: A498 renal
A549 NSCLC = tested on: A549 NSCLC
ACHN renal = tested on: ACHN renal
BT-549 breast = tested on: BT-549 breast
CAKI-1 renal = tested on: CAKI-1 renal
CCRF-CEM leukemia = tested on: CCRF-CEM leukemia
COLO 205 colon = tested on: COLO 205 colon
DU-145 prostate = tested on: DU-145 prostate
EKVX NSCLC = tested on: EKVX NSCLC
HCC-2998 colon = tested on: HCC-2998 colon
HCT-116 colon = tested on: HCT-116 colon
HCT-15 colon = tested on: HCT-15 colon
HL-60(TB) leukemia = tested on: HL-60(TB) leukemia
HOP-62 NSCLC = tested on: HOP-62 NSCLC
HOP-92 NSCLC = tested on: HOP-92 NSCLC
HS 578T breast = tested on: HS 578T breast
HT29 colon = tested on: HT29 colon
IGROV1 ovarian = tested on: IGROV1 ovarian
K-562 leukemia = tested on: K-562 leukemia
KM12 colon = tested on: KM12 colon
LOX IMVI melanoma = tested on: LOX IMVI melanoma
M14 melanoma = tested on: M14 melanoma
MALME-3M melanoma = tested on: MALME-3M melanoma
MCF7 breast = tested on: MCF7 breast
MDA-MB-231 breast = tested on: MDA-MB-231 breast
MDA-MB-435 = tested on: MDA-MB-435
NCI-H226 lung = tested on: NCI-H226 lung
NCI-H23 lung = tested on: NCI-H23 lung
NCI-H460 lung = tested on: NCI-H460 lung
NCI-H522 lung = tested on: NCI-H522 lung
NCI/ADR-RES ovarian = tested on: NCI/ADR-RES ovarian
OVCAR-3 ovarian = tested on: OVCAR-3 ovarian
OVCAR-4 ovarian = tested on: OVCAR-4 ovarian
OVCAR-5 ovarian = tested on: OVCAR-5 ovarian
OVCAR-8 ovarian = tested on: OVCAR-8 ovarian
PC-3 prostate = tested on: PC-3 prostate
RPMI-8226 leukemia = tested on: RPMI-8226 leukemia
RXF 393 renal = tested on: RXF 393 renal
SF-268 CNS = tested on: SF-268 CNS
SF-295 CNS = tested on: SF-295 CNS
SF-539 CNS = tested on: SF-539 CNS
SK-MEL-2 melanoma = tested on: SK-MEL-2 melanoma
SK-MEL-28 melanoma = tested on: SK-MEL-28 melanoma
SK-MEL-5 melanoma = tested on: SK-MEL-5 melanoma
SK-OV-3 ovarian = tested on: SK-OV-3 ovarian
SN12C renal = tested on: SN12C renal
SNB-19 CNS = tested on: SNB-19 CNS
SNB-75 CNS = tested on: SNB-75 CNS
SW-620 colon = tested on: SW-620 colon
T-47D breast = tested on: T-47D breast
TK-10 renal = tested on: TK-10 renal
U251 CNS = tested on: U251 CNS
UACC-257 melanoma = tested on: UACC-257 melanoma
UACC-62 melanoma = tested on: UACC-62 melanoma
UO-31 renal = tested on: UO-31 renal

## O=C(N/N=C/c1ccccc1Cl)c1ccccc1Nc1ccnc(C(F)(F)F)c1
786-0 renal
  GI50: 616 nM
  TGI: 3530 nM
A498 renal
  GI50: 1760 nM
  TGI: 5990 nM
A549 NSCLC
  GI50: 3010 nM
  TGI: 8910 nM
ACHN renal
  GI50: 1160 nM
  TGI: 4720 nM
BT-549 breast
  GI50: 1770 nM
  TGI: 7130 nM
CAKI-1 renal
  GI50: 389 nM
  TGI: 2720 nM
CCRF-CEM leukemia
  GI50: 320 nM
  TGI: 1760 nM
COLO 205 colon
  GI50: 1550 nM
  TGI: 3250 nM
DU-145 prostate
  GI50: 2500 nM
  TGI: > 26500 nM
EKVX NSCLC
  GI50: 1650 nM
  TGI: 5940 nM
HCC-2998 colon
  GI50: 1740 nM
  TGI: 7240 nM
HCT-116 colon
  GI50: 637 nM
  TGI: 3270 nM
HCT-15 colon
  GI50: 430 nM
  TGI: 3950 nM
HL-60(TB) leukemia
  GI50: 1710 nM
HOP-62 NSCLC
  GI50: 1310 nM
  TGI: 8180 nM
HOP-92 NSCLC
  GI50: 1690 nM
  TGI: 6170 nM
HS 578T breast
  GI50: 1820 nM
  TGI: 7230 nM
HT29 colon
  GI50: 3560 nM
  TGI: > 100000 nM
IGROV1 ovarian
  GI50: 1870 nM
  TGI: 10300 nM
K-562 leukemia
  GI50: 2160 nM
KM12 colon
  GI50: 1990 nM
  TGI: 6660 nM
LOX IMVI melanoma
  GI50: 1330 nM
  TGI: 5210 nM
M14 melanoma
  GI50: 1630 nM
  TGI: 7190 nM
MALME-3M melanoma
  GI50: 1550 nM
  TGI: 4940 nM
MCF7 breast
  GI50: 706 nM
  TGI: 4520 nM
MDA-MB-231 breast
  GI50: 1930 nM
  TGI: 6940 nM
MDA-MB-435
  GI50: 1710 nM
  TGI: 6810 nM
NCI-H226 lung
  GI50: 811 nM
  TGI: 3520 nM
NCI-H23 lung
  GI50: 1820 nM
  TGI: 8180 nM
NCI-H460 lung
  GI50: 768 nM
  TGI: 2380 nM
NCI-H522 lung
  GI50: 1980 nM
  TGI: 6740 nM
NCI/ADR-RES ovarian
  GI50: 2160 nM
  TGI: 9320 nM
OVCAR-3 ovarian
  GI50: 832 nM
  TGI: 3680 nM
OVCAR-4 ovarian
  GI50: 1320 nM
  TGI: > 100000 nM
OVCAR-5 ovarian
  GI50: 2750 nM
  TGI: 17300 nM
OVCAR-8 ovarian
  GI50: 2290 nM
  TGI: 8080 nM
PC-3 prostate
  GI50: 1830 nM
  TGI: 9600 nM
RPMI-8226 leukemia
  GI50: 470 nM
  TGI: 2740 nM
RXF 393 renal
  GI50: 174 nM
  TGI: 1100 nM
SF-268 CNS
  GI50: 1800 nM
  TGI: 10500 nM
SF-295 CNS
  GI50: 354 nM
  TGI: 1330 nM
SF-539 CNS
  GI50: 1600 nM
  TGI: 3700 nM
SK-MEL-2 melanoma
  GI50: 1790 nM
  TGI: 5020 nM
SK-MEL-28 melanoma
  GI50: 2390 nM
  TGI: 27600 nM
SK-MEL-5 melanoma
  GI50: 627 nM
  TGI: 2710 nM
SK-OV-3 ovarian
  GI50: 1430 nM
  TGI: 5310 nM
SN12C renal
  GI50: 1270 nM
  TGI: 12700 nM
SNB-19 CNS
  GI50: 2400 nM
  TGI: > 61200 nM
SNB-75 CNS
  GI50: 2410 nM
  TGI: 26700 nM
SW-620 colon
  GI50: 1530 nM
  TGI: 14500 nM
T-47D breast
  GI50: 1330 nM
  TGI: 6410 nM
TK-10 renal
  GI50: 673 nM
  TGI: 3870 nM
U251 CNS
  GI50: 1150 nM
  TGI: 6180 nM
UACC-257 melanoma
  GI50: 2610 nM
  TGI: 5580 nM
UACC-62 melanoma
  GI50: 976 nM
  TGI: 3720 nM
UO-31 renal
  GI50: 1920 nM
  TGI: 6490 nM
